Measured values taken from ChEMBL document CHEMBL1201862, “PubChem BioAssay data set” (2004).
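The compound was tested at five concentrations on cells cultured in 96-well plates, with a 48-hour exposure period. GI50 marks 50% less growth.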 The source made the active and inactive calls. No stated cut-off is given here; in the data, active = GI50 up to about 1.1 µM and inactive = higher.

Columns and labels:
Assay in all cases: DTP human tumour cell line panel, 48 h
HOP-92 = tested on: HOP-92
U-251 = tested on: U-251
CCRF-CEM = tested on: CCRF-CEM
OVCAR-3 = tested on: OVCAR-3
HOP-62 = tested on: HOP-62
NCI-H23 = tested on: NCI-H23
SF-295 = tested on: SF-295
UACC-62 = tested on: UACC-62
DU-145 = tested on: DU-145
A549 = tested on: A549
A498 = tested on: A498
M14 = tested on: M14
MOLT-4 = tested on: MOLT-4
SK-MEL-28 = tested on: SK-MEL-28
BT-549 = tested on: BT-549
CAKI-1 = tested on: CAKI-1
TK-10 = tested on: TK-10
NCI-H226 = tested on: NCI-H226
Hs-578T = tested on: Hs-578T
SK-OV-3 = tested on: SK-OV-3

Q: For Cc1cccc(C2NC(=O)c3ccccc3N2)c1 (stereo not given), which GI50 (HOP-92) is on record?
A: > 58.9 µM (inactive)

Q: And the GI50 (U-251)?
A: 4.95 µM (inactive)

Q: And the GI50 (CCRF-CEM)?
A: 3.23 µM (inactive)

Q: What about the GI50 (OVCAR-3) of the same compound?
A: 3.22 µM (inactive)

Q: What about the GI50 (HOP-62) of the same compound?
A: 6.03 µM (inactive)

Q: And the GI50 (NCI-H23)?
A: 5.11 µM (inactive)

Q: And the GI50 (SF-295)?
A: 2.88 µM (inactive)

Q: And the GI50 (UACC-62)?
A: 6.24 µM (inactive)

Q: What about the GI50 (DU-145) of the same compound?
A: 7.96 µM (inactive)

Q: And the GI50 (A549)?
A: 6.12 µM (inactive)

Q: And the GI50 (A498)?
A: 6.4 µM (inactive)

Q: What about the GI50 (M14) of the same compound?
A: 2.64 µM (inactive)

Q: What about the GI50 (MOLT-4) of the same compound?
A: 1.8 µM (inactive)

Q: What about the GI50 (SK-MEL-28) of the same compound?
A: > 28.7 µM (inactive)

Q: What about the GI50 (BT-549) of the same compound?
A: 5.68 µM (inactive)

Q: What about the GI50 (CAKI-1) of the same compound?
A: 8.65 µM (inactive)

Q: And the GI50 (TK-10)?
A: > 84.1 µM (inactive)

Q: What about the GI50 (NCI-H226) of the same compound?
A: 5.35 µM (inactive)

Q: What about the GI50 (Hs-578T) of the same compound?
A: 8.43 µM (inactive)

Q: What about the GI50 (SK-OV-3) of the same compound?
A: 4.4 µM (inactive)

Q: What does the source list for C=C(NC(=O)C(=C)NC(=O)c1csc(C2=NC3c4csc(n4)C4NC(=O)c5csc(n5)C(C(C)(O)C(C)O)NC(=O)C5CSC(=N5)/C(=C/C)NC(=O)C(C(C)O)NC(=O)c5csc(n5)C3(CC2)NC(=O)C(C)NC(=O)C(=C)NC(=O)C(=C)NC(=O)C(C(C)C)NC2C=Cc3c(C(C)O)cc(nc3C2O)C(=O)OC4C)n1)C(N)=O (stereo not given)?
A: GI50 (HOP-92): 4.67 µM (inactive); GI50 (U-251): 0.877 µM (active); GI50 (CCRF-CEM): 0.25 µM (active); GI50 (OVCAR-3): 10.3 µM (inactive); GI50 (HOP-62): 19.6 µM (inactive); GI50 (NCI-H23): 7.13 µM (inactive); GI50 (SF-295): 26 µM (inactive); GI50 (UACC-62): 0.54 µM (active); GI50 (DU-145): 20.9 µM (inactive); GI50 (A549): 5.42 µM (inactive); GI50 (A498): 2.29 µM (inactive); GI50 (M14): 2.62 µM (inactive); GI50 (MOLT-4): 0.364 µM (active); GI50 (SK-MEL-28): 1.38 µM (inactive); GI50 (BT-549): 2.37 µM (inactive); GI50 (CAKI-1): 3.69 µM (inactive); GI50 (TK-10): 4.18 µM (inactive); GI50 (NCI-H226): 1.19 µM (inactive); GI50 (Hs-578T): 12.3 µM (inactive); GI50 (SK-OV-3): 19.6 µM (inactive)

Q: With CN(CC(=O)N1CC(CCl)c2ccc([N+](=O)[O-])cc21)CC(=O)N1CC(CCl)c2ccc([N+](=O)[O-])cc21 (stereo not given) as the compound, how does the GI50 (HOP-92) read?
A: > 100 µM (inactive)

Q: And the GI50 (U-251)?
A: > 100 µM (inactive)

Q: And the GI50 (CCRF-CEM)?
A: > 100 µM (inactive)

Q: And the GI50 (OVCAR-3)?
A: 74.1 µM (inactive)

Q: What about the GI50 (HOP-62) of the same compound?
A: > 100 µM (inactive)

Q: And the GI50 (NCI-H23)?
A: > 100 µM (inactive)

Q: What about the GI50 (SF-295) of the same compound?
A: > 100 µM (inactive)

Q: And the GI50 (UACC-62)?
A: > 100 µM (inactive)

Q: And the GI50 (DU-145)?
A: > 100 µM (inactive)

Q: And the GI50 (A549)?
A: > 100 µM (inactive)

Q: What about the GI50 (A498) of the same compound?
A: > 100 µM (inactive)

Q: What about the GI50 (M14) of the same compound?
A: > 100 µM (inactive)

Q: And the GI50 (MOLT-4)?
A: > 100 µM (inactive)

Q: What about the GI50 (SK-MEL-28) of the same compound?
A: > 100 µM (inactive)

Q: And the GI50 (BT-549)?
A: > 100 µM (inactive)

Q: What about the GI50 (CAKI-1) of the same compound?
A: > 100 µM (inactive)

Q: And the GI50 (TK-10)?
A: > 100 µM (inactive)

Q: What about the GI50 (NCI-H226) of the same compound?
A: > 100 µM (inactive)

Q: What about the GI50 (Hs-578T) of the same compound?
A: > 100 µM (inactive)

Q: And the GI50 (SK-OV-3)?
A: > 100 µM (inactive)

Q: How did the GI50 (HOP-92) turn out when COc1cc(/C=C2/SC(c3ccccc3)N(c3cccc(Cl)c3)C2=O)cc(OC)c1OC (stereo not given) was run?
A: 23.6 µM (inactive)

Q: And the GI50 (U-251)?
A: 27.6 µM (inactive)

Q: And the GI50 (CCRF-CEM)?
A: 11.3 µM (inactive)

Q: What about the GI50 (OVCAR-3) of the same compound?
A: 40.1 µM (inactive)

Q: And the GI50 (HOP-62)?
A: 39.8 µM (inactive)

Q: And the GI50 (NCI-H23)?
A: 22.9 µM (inactive)

Q: What about the GI50 (SF-295) of the same compound?
A: 8.22 µM (inactive)

Q: What about the GI50 (UACC-62) of the same compound?
A: 18.4 µM (inactive)

Q: And the GI50 (DU-145)?
A: 39.1 µM (inactive)

Q: What about the GI50 (A549) of the same compound?
A: 54.5 µM (inactive)

Q: What about the GI50 (A498) of the same compound?
A: 81.7 µM (inactive)

Q: And the GI50 (M14)?
A: 19.8 µM (inactive)

Q: And the GI50 (MOLT-4)?
A: 24.7 µM (inactive)

Q: And the GI50 (SK-MEL-28)?
A: 26.2 µM (inactive)

Q: What about the GI50 (BT-549) of the same compound?
A: 24.1 µM (inactive)

Q: And the GI50 (CAKI-1)?
A: 35.9 µM (inactive)

Q: What about the GI50 (TK-10) of the same compound?
A: 33.7 µM (inactive)

Q: What about the GI50 (NCI-H226) of the same compound?
A: 42.7 µM (inactive)

Q: And the GI50 (Hs-578T)?
A: 47 µM (inactive)

Q: What about the GI50 (SK-OV-3) of the same compound?
A: 20.9 µM (inactive)

Q: Which results are given for CNC(=O)OCc1nc(SC)n(C)c1COC(=O)NC?
A: GI50 (HOP-92): 111 µM (inactive); GI50 (U-251): 166 µM (inactive); GI50 (CCRF-CEM): 44.8 µM (inactive); GI50 (OVCAR-3): 187 µM (inactive); GI50 (HOP-62): 38.5 µM (inactive); GI50 (NCI-H23): 130 µM (inactive); GI50 (SF-295): 187 µM (inactive); GI50 (UACC-62): 60.1 µM (inactive); GI50 (DU-145): > 81.3 µM (inactive); GI50 (A549): 242 µM (inactive); GI50 (A498): 198 µM (inactive); GI50 (M14): 164 µM (inactive); GI50 (MOLT-4): 26.4 µM (inactive); GI50 (SK-MEL-28): 188 µM (inactive); GI50 (BT-549): 118 µM (inactive); GI50 (CAKI-1): 87.7 µM (inactive); GI50 (TK-10): 177 µM (inactive); GI50 (NCI-H226): 83.8 µM (inactive); GI50 (Hs-578T): 195 µM (inactive); GI50 (SK-OV-3): 63 µM (inactive)

Q: What does the source list for CCOC(=O)NNC(=O)NCCCCNC(=O)NNC(=O)OCC?
A: GI50 (HOP-92): > 100 µM (inactive); GI50 (U-251): > 100 µM (inactive); GI50 (CCRF-CEM): > 100 µM (inactive); GI50 (OVCAR-3): > 100 µM (inactive); GI50 (HOP-62): > 100 µM (inactive); GI50 (NCI-H23): > 100 µM (inactive); GI50 (SF-295): > 100 µM (inactive); GI50 (UACC-62): > 100 µM (inactive); GI50 (DU-145): > 100 µM (inactive); GI50 (A549): > 100 µM (inactive); GI50 (A498): > 100 µM (inactive); GI50 (M14): > 100 µM (inactive); GI50 (MOLT-4): > 100 µM (inactive); GI50 (SK-MEL-28): > 100 µM (inactive); GI50 (BT-549): > 100 µM (inactive); GI50 (CAKI-1): > 100 µM (inactive); GI50 (TK-10): > 100 µM (inactive); GI50 (NCI-H226): > 100 µM (inactive); GI50 (Hs-578T): > 100 µM (inactive); GI50 (SK-OV-3): > 100 µM (inactive)

Q: What does the source list for NC1(c2cc3ccccc3s2)CCCC1?
A: GI50 (HOP-92): 51.6 µM (inactive); GI50 (U-251): 48 µM (inactive); GI50 (CCRF-CEM): 16.9 µM (inactive); GI50 (OVCAR-3): > 100 µM (inactive); GI50 (HOP-62): > 100 µM (inactive); GI50 (NCI-H23): > 100 µM (inactive); GI50 (SF-295): 71.3 µM (inactive); GI50 (UACC-62): 50.4 µM (inactive); GI50 (DU-145): > 100 µM (inactive); GI50 (A549): 90.6 µM (inactive); GI50 (A498): > 100 µM (inactive); GI50 (M14): 25.5 µM (inactive); GI50 (MOLT-4): 18.4 µM (inactive); GI50 (SK-MEL-28): 23.7 µM (inactive); GI50 (BT-549): > 100 µM (inactive); GI50 (CAKI-1): > 100 µM (inactive); GI50 (TK-10): 34.1 µM (inactive); GI50 (NCI-H226): > 100 µM (inactive); GI50 (Hs-578T): > 100 µM (inactive); GI50 (SK-OV-3): > 100 µM (inactive)
